According to PubChem BioAssay (NCI):
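In this assay, cells in 96-well plates receive the compound at five concentrations for 48 hours. Endpoints are linearly interpolated between the surrounding concentrations. GI50 marks 50% less growth. TGI marks complete inhibition of growth.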

How the values were obtained:
Test in all cases: inhibition of tumour cell growth, NCI panel, 48 h; in the data active means GI50 below about 0.43 µM; inactive means the rest
786-0 renal = system: 786-0 renal
A498 renal = system: A498 renal
A549 NSCLC = system: A549 NSCLC
ACHN renal = system: ACHN renal
BT-549 breast = system: BT-549 breast
CAKI-1 renal = system: CAKI-1 renal
CCRF-CEM leukemia = system: CCRF-CEM leukemia
COLO 205 colon = system: COLO 205 colon
DU-145 prostate = system: DU-145 prostate
EKVX NSCLC = system: EKVX NSCLC
HCC-2998 colon = system: HCC-2998 colon
HCT-116 colon = system: HCT-116 colon
HCT-15 colon = system: HCT-15 colon
HOP-62 NSCLC = system: HOP-62 NSCLC
HOP-92 NSCLC = system: HOP-92 NSCLC
HS 578T breast = system: HS 578T breast
HT29 colon = system: HT29 colon
IGROV1 ovarian = system: IGROV1 ovarian
K-562 leukemia = system: K-562 leukemia
KM12 colon = system: KM12 colon
LOX IMVI melanoma = system: LOX IMVI melanoma
M14 melanoma = system: M14 melanoma
MALME-3M melanoma = system: MALME-3M melanoma
MCF7 breast = system: MCF7 breast
MDA-MB-231 breast = system: MDA-MB-231 breast
MDA-MB-435 = system: MDA-MB-435
MOLT-4 leukemia = system: MOLT-4 leukemia
NCI-H226 lung = system: NCI-H226 lung
NCI-H23 lung = system: NCI-H23 lung
NCI-H460 lung = system: NCI-H460 lung
NCI-H522 lung = system: NCI-H522 lung
NCI/ADR-RES ovarian = system: NCI/ADR-RES ovarian
OVCAR-3 ovarian = system: OVCAR-3 ovarian
OVCAR-4 ovarian = system: OVCAR-4 ovarian
OVCAR-5 ovarian = system: OVCAR-5 ovarian
OVCAR-8 ovarian = system: OVCAR-8 ovarian
PC-3 prostate = system: PC-3 prostate
RPMI-8226 leukemia = system: RPMI-8226 leukemia
RXF 393 renal = system: RXF 393 renal
SF-268 CNS = system: SF-268 CNS
SF-295 CNS = system: SF-295 CNS
SF-539 CNS = system: SF-539 CNS
SK-MEL-28 melanoma = system: SK-MEL-28 melanoma
SK-MEL-5 melanoma = system: SK-MEL-5 melanoma
SK-OV-3 ovarian = system: SK-OV-3 ovarian
SN12C renal = system: SN12C renal
SNB-19 CNS = system: SNB-19 CNS
SNB-75 CNS = system: SNB-75 CNS
SW-620 colon = system: SW-620 colon
TK-10 renal = system: TK-10 renal
U251 CNS = system: U251 CNS
UACC-257 melanoma = system: UACC-257 melanoma
UACC-62 melanoma = system: UACC-62 melanoma
UO-31 renal = system: UO-31 renal

Cn1c2c(c3c(Cl)nncc31)Cc1ccccc1-2
67.1 µM: TGI (NCI-H460 lung)
41 µM: TGI (DU-145 prostate)
80.7 µM: TGI (RXF 393 renal)
85.6 µM: TGI (MALME-3M melanoma)
64.9 µM: TGI (BT-549 breast)
54.3 µM: TGI (ACHN renal)
> 100 µM: TGI (786-0 renal) | TGI (A549 NSCLC) | TGI (CCRF-CEM leukemia) | TGI (HCC-2998 colon) | TGI (HCT-116 colon) | TGI (HCT-15 colon) | TGI (HOP-62 NSCLC) | TGI (HS 578T breast) | TGI (IGROV1 ovarian) | TGI (K-562 leukemia) | TGI (KM12 colon) | TGI (LOX IMVI melanoma) | TGI (M14 melanoma) | TGI (MCF7 breast) | TGI (MDA-MB-435) | TGI (OVCAR-3 ovarian) | TGI (OVCAR-4 ovarian) | TGI (OVCAR-5 ovarian) | TGI (OVCAR-8 ovarian) | TGI (PC-3 prostate) | TGI (RPMI-8226 leukemia) | TGI (SF-268 CNS) | TGI (SK-MEL-28 melanoma) | TGI (SNB-75 CNS) | TGI (SW-620 colon) | TGI (TK-10 renal) | TGI (U251 CNS) | TGI (UACC-257 melanoma) | TGI (UO-31 renal)
inactive: GI50 (786-0 renal) 23.6 µM | GI50 (A498 renal) 11.4 µM | GI50 (A549 NSCLC) 20.6 µM | GI50 (ACHN renal) 11.6 µM | GI50 (BT-549 breast) 20.7 µM | GI50 (CAKI-1 renal) 16.9 µM | GI50 (CCRF-CEM leukemia) 15.3 µM | GI50 (COLO 205 colon) 15.3 µM | GI50 (DU-145 prostate) 6.4 µM | GI50 (EKVX NSCLC) 5.79 µM | GI50 (HCC-2998 colon) 20.9 µM | GI50 (HCT-116 colon) 17.9 µM | GI50 (HCT-15 colon) 22.2 µM | GI50 (HOP-62 NSCLC) 25.2 µM | GI50 (HOP-92 NSCLC) 9.47 µM | GI50 (HS 578T breast) 28 µM | GI50 (HT29 colon) 16.9 µM | GI50 (IGROV1 ovarian) 48.9 µM | GI50 (K-562 leukemia) 25.9 µM | GI50 (KM12 colon) 32.8 µM | GI50 (LOX IMVI melanoma) 20.9 µM | GI50 (M14 melanoma) 28.1 µM | GI50 (MALME-3M melanoma) 24.9 µM | GI50 (MCF7 breast) 9.03 µM | GI50 (MDA-MB-231 breast) 21.2 µM | GI50 (MDA-MB-435) 29.7 µM | GI50 (MOLT-4 leukemia) 3.12 µM | GI50 (NCI-H226 lung) 15.6 µM | GI50 (NCI-H23 lung) 18.7 µM | GI50 (NCI-H460 lung) 5.28 µM | GI50 (NCI-H522 lung) 25.1 µM | GI50 (NCI/ADR-RES ovarian) 16.3 µM | GI50 (OVCAR-3 ovarian) 31 µM | GI50 (OVCAR-4 ovarian) 23.9 µM | GI50 (OVCAR-5 ovarian) 27.4 µM | GI50 (OVCAR-8 ovarian) 25.5 µM | GI50 (PC-3 prostate) 31.8 µM | GI50 (RPMI-8226 leukemia) 18.1 µM | GI50 (RXF 393 renal) 24.5 µM | GI50 (SF-268 CNS) 25.9 µM | GI50 (SF-295 CNS) 17.5 µM | GI50 (SF-539 CNS) 20 µM | GI50 (SK-MEL-28 melanoma) 30.2 µM | GI50 (SK-MEL-5 melanoma) 10.3 µM | GI50 (SK-OV-3 ovarian) 28.6 µM | GI50 (SN12C renal) 20.8 µM | GI50 (SNB-19 CNS) 12.9 µM | GI50 (SNB-75 CNS) 76.8 µM | GI50 (SW-620 colon) 17.9 µM | GI50 (TK-10 renal) 26.2 µM | GI50 (U251 CNS) 20 µM | GI50 (UACC-257 melanoma) 48.7 µM | GI50 (UACC-62 melanoma) 13.9 µM | GI50 (UO-31 renal) 31.4 µM
49 µM: TGI (NCI-H23 lung)
24.9 µM: TGI (SK-MEL-5 melanoma)
43 µM: TGI (HOP-92 NSCLC)
46.8 µM: TGI (NCI-H226 lung)
76.1 µM: TGI (SF-539 CNS)
81.7 µM: TGI (SN12C renal)
73.5 µM: TGI (MDA-MB-231 breast)
66.7 µM: TGI (SF-295 CNS)
75.1 µM: TGI (SK-OV-3 ovarian)
34.5 µM: TGI (A498 renal)
67.2 µM: TGI (CAKI-1 renal)
62 µM: TGI (UACC-62 melanoma)
51.1 µM: TGI (SNB-19 CNS)
59.9 µM: TGI (NCI-H522 lung)
44.3 µM: TGI (EKVX NSCLC)
50.2 µM: TGI (COLO 205 colon)
44.5 µM: TGI (HT29 colon) | TGI (NCI/ADR-RES ovarian)
